Test results: US20230399341A1, “7-PHENYL SUBSTITUTED 2-AMINOQUINAZOLINE INHIBITORS OF HPK1” (MERCK SHARP & DOHME LLC, priority 2020, published 2023)

What follows are compounds tested against T1, Human HPK1, catalytic domain (Homo sapiens, UniProt Q92918) (assay: HPK1-SLP76 TR-FRET Assay). Settings: 75 pM HPK1, ATP 10 uM, SLP76 10 nM, 30 min pre-incubation, 60 min reaction.
T1 sequence (Q92918 1-346): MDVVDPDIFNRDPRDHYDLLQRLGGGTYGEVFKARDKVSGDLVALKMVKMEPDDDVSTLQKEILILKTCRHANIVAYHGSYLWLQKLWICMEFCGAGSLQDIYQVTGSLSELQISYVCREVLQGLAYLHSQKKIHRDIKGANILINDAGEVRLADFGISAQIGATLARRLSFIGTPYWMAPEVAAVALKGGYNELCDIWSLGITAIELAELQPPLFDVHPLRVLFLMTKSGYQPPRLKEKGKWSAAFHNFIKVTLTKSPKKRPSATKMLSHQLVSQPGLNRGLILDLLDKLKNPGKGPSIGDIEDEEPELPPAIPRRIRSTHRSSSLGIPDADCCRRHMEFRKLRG
Type: biochemical

SMILES | IC50 [nM]
COc1cc2c(cc1Nc1ncc3ccc(-c4cnn5c4CCC5)cc3n1)CNCC2 [Compound 1-35, 7-(5,6-dihydro-4H-pyrrolo[1,2-b]pyrazol-3-yl)-N-(6-methoxy-1,2,3,4-tetrahydroisoquinolin-7-yl)quinazolin-2-amine] | 0.689
COc1cc2c(cc1Nc1ncc3ccc(-c4ccc(N)nc4)cc3n1)CNCC2 [Compound 1-27, 7-(6-aminopyridin-3-yl)-N-(6-methoxy-1,2,3,4-tetrahydroisoquinolin-7-yl)quinazolin-2-amine] | 9.91
COc1cc2c(cc1Nc1ncc3ccc(-c4ccc(NCCN5CCOCC5)nc4)cc3n1)CNCC2 [Compound 1-48, N-(6-methoxy-1,2,3,4-tetrahydroisoquinolin-7-yl)-7-(6-{[2-(morpholin-4-yl)ethyl]amino}pyridin-3-yl)quinazolin-2-amine] | 387
COc1cc2c(cc1Nc1ncc3c(N)cc(-c4cncc(N)c4C)cc3n1)CN(C)CC2 [Compound 2-39, 7-(5-amino-4-methylpyridin-3-yl)-N~2~- (6-methoxy-2-methyl-1,2,3,4-tetrahydroisoquinolin-7-yl)quinazoline-2,5-diamine] | 0.942
Cc1c(-c2cc3nc(Nc4ccc5c(c4)CN(C)C(C)C5)ncc3c(N)c2F)cnc2c1NCCO2 (single isomer, unassigned) [Compound 2-85, (R or S)—N2-(2,3-dimethyl-1,2,3,4-tetrahydroisoquinolin-7-yl)-6-fluoro-7-(8-methyl-2,3-dihydro-1H-pyrido[2,3-b][1,4]oxazin-7-yl)quinazoline-2,5-diamine] | 0.0328
CNC(=O)c1ccc(-c2ccc3cnc(Nc4cc5c(cc4OC)CCN(C)C5)nc3c2)cn1 [Compound 1-21, 5-{2-[(6-methoxy-2-methyl-1,2,3,4-tetrahydroisoquinolin-7-yl)amino]quinazolin-7-yl}-N-methylpyridine-2-carboxamide] | 294
Cc1c(-c2cc3nc(Nc4ccc(C5(C#N)CC5)cc4)ncc3c(N)c2F)cnc2c1NCCO2 [Compound 2-18, 1-(4-{[5-amino-6-fluoro-7-(8-methyl-2,3-dihydro-1H-pyrido[2,3-b][1,4]oxazin-7-yl)quinazolin-2-yl]amino}phenyl)cyclo-propane-1-carbonitrile] | 0.382
Cc1c(-c2cc3nc(Nc4ccc(C(C)S(C)(=O)=O)cc4)ncc3c(N)c2F)cnc2c1NCCO2 (single isomer, unassigned) [Compound 2-63, (R or S)-6-fluoro-7-(8-methyl-2,3-dihydro-1H-pyrido[2,3-b][1,4]oxazin-7-yl)-N˜2˜-{4-[1-(methylsulfonyl)ethyl]phenyl}quinazoline-2,5-diamine] | 0.0861
COc1cc2c(cc1Nc1ncc3ccc(-c4cccc(C(C)=O)c4)cc3n1)CNCC2 [Compound 1-66, 1-(3-{2-[(6-methoxy-1,2,3,4-tetrahydroisoquinolin-7-yl)amino]quinazolin-7-yl}phenyl)ethan-1-one] | 130
COc1cc2c(cc1Nc1ncc3ccc(-c4ccc(NC(C)=O)nc4)cc3n1)CN(C)CC2 [Compound 1-18, N-(5-{2-[(6-methoxy-2-methyl-1,2,3,4-tetrahydroisoquinolin-7-yl)amino]quinazolin-7-yl}pyridin-2-yl)acetamide] | 82.2
COc1cc2c(cc1Nc1ncc3ccc(-c4cccc(C(=O)NC5CC5)c4)cc3n1)CNCC2 [Compound 1-67, N-cyclopropyl-3-{2-[(6-methoxy-1,2,3,4-tetrahydroisoquinolin-7-yl)amino]quinazolin-7-yl}benzamide] | 33.9
Cc1c(-c2cc3nc(Nc4ccc(CC(=O)N5CCOCC5)cc4)ncc3cc2F)cnc2c1NCCO2 [Compound 1-133, 2-(4-{[6-fluoro-7-(8-methyl-2,3-dihydro-1H-pyrido[2,3-b][1,4]oxazin-7-yl)quinazolin-2-yl]amino}phenyl)-1-(morpholin-4-yl)ethan-1-one] | 0.0835
Cc1c(-c2cc3nc(Nc4ccc(C(C)S(C)(=O)=O)cc4)ncc3c(N)c2F)cnc2c1NCCO2 (single isomer, unassigned) [Compound 2-62, (R or S)-6-fluoro-7-(8-methyl-2,3-dihydro-1H-pyrido[2,3-b][1,4]oxazin-7-yl)-N˜2˜-{4-[1-(methylsulfonyl)ethyl]phenyl}quinazoline-2,5-diamine] | 0.0612

Other lines, results leading:

IC50 [nM] | SMILES
170 | COc1cc2c(cc1Nc1ncc3ccc(N[C@H]4CCCOCC4)cc3n1)CN(C)CC2 [Compound 3-47, (S)-N2-(6-methoxy-2-methyl-1,2,3,4-tetrahydroisoquinolin-7-yl)-N7-(oxepan-4-yl)quinaz-oline-2,7-diamine]
0.126 | Cc1c(-c2cc3nc(Nc4ccc5c(c4)CN(C)CC5)ncc3c(N)c2F)cnc2nc[nH]c12 [Compound 2-162, 6-fluoro-7-(7-methyl-1H-imidazo[4,5-b]pyridin-6-yl)-N~2~-(2-methyl-1,2,3,4-tetrahydroisoquinolin-7-yl)quinazoline-2,5-diamine]
0.0831 | Cc1c(-c2cc3nc(Nc4ccc(C5(S(C)(=O)=O)CC5)cc4)ncc3c(N)c2F)cnc2c1NCCO2 [Compound 2-148, 6-fluoro-N~2~-{4-[1-(methanesulfonyl)cyclo-propyl]phenyl}-7-(8-methyl-2,3-dihydro-1H-pyrido[2,3-b][1,4]oxazin-7-yl)quinazoline-2,5-diamine]
0.0355 | COc1cc2c(cc1Nc1ncc3c(N)c(F)c(-c4cnc5c(c4C)NCCO5)c(Cl)c3n1)CN(C)CC2 [Compound 2-90, (+ and −)-8-chloro-6-fluoro-N~2~-(6-methoxy-2-methyl-1,2,3,4-tetrahydroisoquinolin-7-yl)-7-(8-methyl-2,3-dihydro-1H-pyrido[2,3-b][1,4]oxazin-7-yl)quinazoline-2,5-diamine]
100 | Cc1c(-c2cc3nc(Nc4cc5c(cc4C(N)=O)CCN(C)C5)ncc3c(N)c2F)cnc2c1NCCO2 [Compound 2-87, 7-((5-amino-6-fluoro-7-(8-methyl-2,3-dihydro-1H-pyrido[2,3-b][1,4]oxazin-7-yl)quinazolin-2-yl)amino)-2-methyl-1,2,3,4-tetrahydroisoquinoline-6-carboxamide]
258 | COc1cc2c(cc1Nc1ncc3ccc(Oc4cn[nH]c4)cc3n1)CN(C)CC2 [Compound 4-5, N-(6-methoxy-2-methyl-1,2,3,4-tetrahydroisoquin-olin-7-yl)-7-[(1H-pyrazol-4-yl)oxy]quinazolin-2-amine]
11.4 | Cc1ccc(F)cc1-c1cc2nc(Nc3ccc4c(c3)CN(C)CC4)ncc2c(N)c1F [Compound 2-174, 6-fluoro-7-(5-fluoro-2-methylphenyl)-N~2~-(2-methyl-1,2,3,4-tetrahydroisoquinolin-7-yl)quinazoline-2,5-diamine]
1.05 | CCC1COC(=O)N1c1ccc2cnc(Nc3cc4c(cc3OC)CCN(C)C4)nc2c1 (single isomer, unassigned) [Compound 3-13, (S or R)-4-ethyl-3-{2-[(6-methoxy-2-methyl-1,2,3,4-tetrahydroisoquinolin-7-yl)amino]quinazolin-7-yl}-1,3-oxazolidin-2-one]
92.6 | COc1cc2c(cc1Nc1ncc3ccc(N4CC5(CCCNCC5)OC4=O)cc3n1)CN(C)CC2 (racemic) [Compound 3-8, (S and R)-3-{2-[(6-methoxy-2-methyl-1,2,3,4-tetrahydroiso-quinolin-7-yl)amino]quinazolin-7-yl}-1-oxa-3,8-diazaspiro[4.6]-undecan-2-one]
0.0213 | COc1cc2c(cc1Nc1ncc3c(N)c(F)c(-c4cnc5c(c4C)NCCO5)c(Cl)c3n1)CN(C)CC2 (single isomer, unassigned) [Compound 2-93, (+ or −)-8-chloro-6-fluoro-N~2~-(6-methoxy-2-methyl-1,2,3,4-tetrahydroisoquinolin-7-yl)-7-(8-methyl-2,3-dihydro-1H-pyrido[2,3-b][1,4]oxazin-7-yl)quinazoline-2,5-diamine]
97.9 | COc1cc2c(cc1Nc1ncc3ccc(NCc4noc(C)n4)cc3n1)CN(C)CC2 [Compound 3-52, N~2~-(6-methoxy-2-methyl-1,2,3,4-tetrahydroisoquinolin-7-yl)-N~7~-[(5-methyl-1,2,4-oxadiazol-3-yl)methyl]quinaz-oline-2,7-diamine]
81.5 | COc1cc2c(cc1Nc1ncc3ccc(Nc4cccc(C(=O)N(C)C)c4)cc3n1)CN(C)CC2 [Compound 3-34, 3-({2-[(6-methoxy-2-methyl-1,2,3,4-tetrahydroisoquinolin-7-yl)amino]quinazolin-7-yl}-amino)-N,N-dimethylbenzamide]
0.194 | Cc1c(-c2cc3nc(Nc4ccc(CS(=O)(=O)CC(F)(F)F)cc4)ncc3c(N)c2F)cnc2c1NCCO2 [Compound 2-149, 6-fluoro-7-(8-methyl-2,3-dihydro-1H-pyrido[2,3-b][1,4]oxazin-7-yl)-N~2~- {4-[(2,2,2-trifluoroethanesulfonyl)methyl]phenyl}quinazoline-2,5-diamine]
0.0248 | Cc1c(-c2cc3nc(Nc4ccc5c(c4)C4CCC5N4C)ncc3c(N)c2F)cnc2c1NCCO2 (stereo not shown) [Compound 2-121, 6-fluoro-7-(8-methyl-2,3-dihydro-1H-pyrido[2,3-b][1,4]oxazin-7-yl)-N~2~- (9-methyl-1,2,3,4-tetrahydro-1,4-epiminonaphthalen-6-yl)quinazoline-2,5-diamine]
100 | Cc1c(-c2c(F)c(N)c3cnc(Nc4ccc(CS(=O)(=O)C5CC5)cc4)nc3c2Cl)cnc2c1NCCO2 [Compound 2-137, 8-chloro-N2-(4-((cyclopropylsulfonyl)methyl)phenyl)-6-fluoro-7-(8-methyl-2,3-dihydro-1H-pyrido[2,3-b][1,4]oxazin-7-yl)quinazoline-2,5-diamine]
